For nine compounds, GI50 and TGI results are on record in PubChem BioAssay (NCI).

Some test systems named below: SN12C renal; SW-620 colon; NCI-H23 lung; HOP-92 NSCLC; SK-MEL-5 melanoma; U251 CNS; OVCAR-8 ovarian; DU-145 prostate; ACHN renal; OVCAR-4 ovarian.
What all share (test): inhibition of tumour cell growth, NCI panel, 48 h

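All cell lines were grown in 96-well plates and treated with compound for 48 hours. Here, GI50 denotes the concentration required for 50% inhibition of growth. The concentration for full growth arrest is given as TGI.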

As for `COc1ccc(C2=NN(C(C)=O)C(c3ccc(Oc4ccnc5cc(Cl)ccc45)c(OC)c3)C2)cc1` (centres undefined), the GI50 was greater than 100 µM in the test with SN12C renal; greater than 100 µM in the test with SW-620 colon; 11.9 µM in the test on NCI-H23 lung; 3.03 µM with HOP-92 NSCLC; greater than 100 µM in the test with SK-MEL-5 melanoma; 4.51 µM with U251 CNS. The GI50 in the test with OVCAR-8 ovarian is 3.63 µM; in the test on DU-145 prostate it was greater than 100 µM; with ACHN renal it was 4.03 µM. For the same compound, the TGI in the test on SN12C renal was greater than 100 µM; with SW-620 colon, greater than 100 µM; in the test with NCI-H23 lung, greater than 100 µM; in the test with HOP-92 NSCLC, 15.4 µM; in the test on SK-MEL-5 melanoma, greater than 100 µM; in the test on U251 CNS, 38.4 µM. Besides, the TGI in the test with OVCAR-8 ovarian, in the test with DU-145 prostate and in the test with ACHN renal was greater than 100 µM each time.
Take `C#CCOC(=O)/C=C/C(=O)Oc1ccc2c(C)cc(=O)oc2c1`: the GI50 in the test with SN12C renal, in the test on SW-620 colon, in the test with NCI-H23 lung, in the test on SK-MEL-5 melanoma, in the test with U251 CNS and with OVCAR-8 ovarian was greater than 100 µM in each case. For the same compound, the GI50 with DU-145 prostate, in the test on ACHN renal and in the test on OVCAR-4 ovarian was greater than 100 µM each time. For the same compound, the TGI in the test with SN12C renal, in the test with SW-620 colon, in the test with NCI-H23 lung, in the test on SK-MEL-5 melanoma, in the test with U251 CNS and in the test with OVCAR-8 ovarian was greater than 100 µM each time. Also, the TGI in the test with DU-145 prostate, in the test on ACHN renal and in the test with OVCAR-4 ovarian was greater than 100 µM in each case.
Turning to `O=C(Nc1ccccc1Cl)c1ccc(NC2=C(Cl)C(=O)N(C3CCCCC3)C2=O)cc1`, the GI50 with SW-620 colon is 10.3 µM; in the test with NCI-H23 lung, 4.92 µM; with HOP-92 NSCLC, 17.4 µM; in the test on SK-MEL-5 melanoma, 11.5 µM; in the test on U251 CNS, 3 µM; with OVCAR-8 ovarian, 2.99 µM. Besides, the GI50 is 6.78 µM in the test with DU-145 prostate, 10.6 µM in the test on ACHN renal and 25.1 µM in the test on OVCAR-4 ovarian. Besides, the TGI was found to be 30.2 µM in the test on SW-620 colon; 21.2 µM with NCI-H23 lung; 42.2 µM in the test with HOP-92 NSCLC; 40.3 µM in the test with SK-MEL-5 melanoma; 19.4 µM with U251 CNS; 18.5 µM in the test on OVCAR-8 ovarian. Also, the TGI in the test with DU-145 prostate is 23.9 µM; with ACHN renal it was 30.4 µM; in the test with OVCAR-4 ovarian it was 74.9 µM.
Consider `O=C1c2cc3c(cc2-c2c1c1ccc(F)cc1c(=O)n2C[C@H](O)[C@H](O)[C@H](O)CO)OCO3`, for which the GI50 is 0.19 µM with SN12C renal; 0.0967 µM with SW-620 colon; 0.129 µM in the test with NCI-H23 lung; 0.243 µM with HOP-92 NSCLC; 0.141 µM in the test on SK-MEL-5 melanoma; 0.05 µM in the test with U251 CNS. Besides, the figures for the GI50 in the test on OVCAR-8 ovarian, in the test on DU-145 prostate and in the test with OVCAR-4 ovarian were 0.203 µM, 0.199 µM and 0.28 µM, respectively. Further, the TGI was 0.792 µM in the test with SN12C renal; greater than 100 µM in the test on SW-620 colon; 0.482 µM in the test with NCI-H23 lung; 0.896 µM with HOP-92 NSCLC; 0.277 µM in the test on SK-MEL-5 melanoma; 0.258 µM with U251 CNS. The values for the TGI in the test with OVCAR-8 ovarian, in the test with DU-145 prostate and with OVCAR-4 ovarian were 0.66 µM, 1.59 µM and 34.9 µM, respectively.
On to `O=C(O)CN1C(=O)CN=C(c2ccccn2)c2cc(Cl)ccc21`, for which the TGI in the test on SN12C renal, in the test with SW-620 colon, with HOP-92 NSCLC, in the test with SK-MEL-5 melanoma, in the test on U251 CNS and with OVCAR-8 ovarian was greater than 100 µM throughout. Further, the TGI in the test on DU-145 prostate, in the test with ACHN renal and with OVCAR-4 ovarian was greater than 100 µM each time.
For `Cc1ccc2[nH]c(O)c(N=Nc3ccccc3[N+](=O)[O-])c2c1`, the TGI with SN12C renal was greater than 100 µM; in the test on SW-620 colon, greater than 100 µM; in the test on NCI-H23 lung, 77.1 µM; in the test on HOP-92 NSCLC, 6.55 µM; with SK-MEL-5 melanoma it was greater than 100 µM; in the test on U251 CNS it was 18.6 µM. Besides, the figures for the TGI in the test with OVCAR-8 ovarian, in the test with DU-145 prostate and with OVCAR-4 ovarian were greater than 33.9 µM, greater than 100 µM and 6.18 µM, respectively.
On to `OCCN(CCO)c1nc(N2CCCCC2)c2nc(N(CCO)CCO)nc(N3CCCCC3)c2n1`, for which the TGI was greater than 100 µM in the test on SN12C renal; greater than 100 µM in the test on SW-620 colon; greater than 100 µM in the test on NCI-H23 lung; 36.4 µM with HOP-92 NSCLC; 41.8 µM in the test on SK-MEL-5 melanoma; greater than 100 µM with OVCAR-8 ovarian. The TGI in the test on DU-145 prostate, with ACHN renal and with OVCAR-4 ovarian was greater than 100 µM each time.
As for `CCN(CCO)CCCC(C)Nc1ccnc2cc(Cl)ccc12` (centres undefined), the GI50 in the test with SN12C renal, in the test on SW-620 colon, with HOP-92 NSCLC, in the test on SK-MEL-5 melanoma, in the test on U251 CNS and in the test on OVCAR-8 ovarian was greater than 100 µM throughout. Moreover, the GI50 in the test with DU-145 prostate, in the test with ACHN renal and in the test with OVCAR-4 ovarian was greater than 100 µM each time. For the same compound, the TGI in the test with SN12C renal, in the test with SW-620 colon, in the test with HOP-92 NSCLC, in the test with SK-MEL-5 melanoma, in the test on U251 CNS and in the test on OVCAR-8 ovarian was greater than 100 µM throughout. The TGI with DU-145 prostate, in the test on ACHN renal and in the test with OVCAR-4 ovarian was greater than 100 µM each time.
As to `O=C(c1ccc2ccccc2c1)c1c(C(F)(F)F)n([O-])c2cc(C(F)(F)F)ccc2[n+]1=O`, the GI50 with SN12C renal was 1.68 µM; with NCI-H23 lung, 2.41 µM; in the test on HOP-92 NSCLC, 1.39 µM; with SK-MEL-5 melanoma, 8.14 µM; in the test on U251 CNS, 1.75 µM; with OVCAR-8 ovarian, 2.02 µM. In addition, the results for the GI50 in the test with DU-145 prostate, in the test on ACHN renal and in the test with OVCAR-4 ovarian were 1.67 µM, 1.5 µM and 1.22 µM, respectively. The TGI in the test with SN12C renal was 3.81 µM; in the test with NCI-H23 lung it was 5.87 µM; with HOP-92 NSCLC, 2.79 µM; with U251 CNS, 3.29 µM; with OVCAR-8 ovarian it was 5.2 µM; with DU-145 prostate it was 3.12 µM. For the same compound, the TGI in the test on ACHN renal was found to be 2.88 µM; in the test with OVCAR-4 ovarian it was 3.51 µM.
